Test results as given in patent US10098878B2, “HIF-2α inhibitors for treating iron overload disorders” (The Board of Regents of the University of Texas System, priority 2014, dated 2018).
Read-outs that look alike come from different tables or passages of the source.

Legend:
[1] = target: T1, HIF-2α HIS TAG-PASB Domain (Homo sapiens, UniProt Q99814); experiment: HIF-2α Scintillation Proximity Assay (SPA); format: binding; conditions: 150 nM Compound 211 probe, 100 nM HIF-2α HIS TAG-PASB Domain; read-out: SPA IC50
T1 construct: 100 nM HIF-2α HIS TAG-PASB Domain
T1 sequence (Q99814 240-350 limits assumed): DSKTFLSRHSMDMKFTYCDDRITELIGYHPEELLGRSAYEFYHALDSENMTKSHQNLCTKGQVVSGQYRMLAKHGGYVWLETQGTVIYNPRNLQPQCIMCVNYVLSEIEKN
Description: The total assay volume was about 100 μL in the following configuration: 2 μL compound in 100% DMSO, 88 μL buffer with protein and probe and 10 μL of SPA beads. […] The percent inhibition was determined and IC50 values were calculated using the Dotmatics system based on the following equation: % inhibition=[(high control−sample)/(high control−low control)]×100.

786-O-Hif-Luc cells = experiment: Luciferase Assay; format: cell-based; conditions: read-out: Luciferase EC50
Description: A pool of infected cells were then selected against 2 μg/mL of puromycin (P8833, Sigma) for 10 days followed by limited dilution to select single clones.
Each concentration was tested in triplicate. After about 24 hours, luciferase activity was determined using ONE-Glo Luciferase Assay Reagent (E6110, Promega) following the manufacturer's recommended procedure. EC50 were calculated by using Dotmatics software.

[2] = 24 h, 786-O-Hif-Luc cells, about 24 hours
[3] = 786-O-Hif-Luc cells, about 24 hours

Structure (SMILES)	IC50 [1] [µM]	EC50 (786-O-Hif-Luc cells; [2]) [µM]	EC50 (786-O-Hif-Luc cells; [3]) [µM]	EC50 (786-O-Hif-Luc cells) [µM]	EC50 (786-O-Hif-Luc cells; 24 h) [µM]
N#Cc1cc(F)cc(Oc2ccc(S(=O)(=O)C(F)(F)F)c3c2[C@@H](N)C[C@H]3O)c1 (relative stereo) [Compound 43, 3-((cis-3-amino-1-hydroxy-7-((trifluoromethyl)sulfonyl)-2,3-dihydro-1H-inden-4-yl)oxy)-5-fluorobenzonitrile]	5.1	5.9	–	–	–
C=CCN=S(=O)(c1ccc(Oc2cc(F)cc(C#N)c2)c2c1[C@H](O)C(F)(F)C2)C(F)(F)F (single isomer, unassigned) [Compound 71]	0.37	–	1.67	–	–
N=S1(=O)c2ccc(Oc3cc(F)cc(F)c3)c(Br)c2C(O)C1(F)F (single isomer, unassigned) [Compound 141, 4-Bromo-5-(3,5-difluorophenoxy)-2,2-difluoro-3-hydroxy-1-imino-2,3-dihydro-1H-1λ^4-benzo[b]thiophene 1-oxide]	4.1	0.544	–	–	–
Cc1cc(Oc2cc(F)cc(C#N)c2)c2c(c1S(C)(=O)=O)C(O)C(F)(F)C2 (stereo not shown) [Compound 12, 3-((2,2-Difluoro-1-hydroxy-6-methyl-7-(methylsulfonyl)-2,3-dihydro-1H-inden-4-yl)oxy)-5-fluorobenzonitrile]	0.8	0.775	–	–	–
N#Cc1cncc(Oc2ccc(S(N)(=O)=O)c3c2CC(F)(F)[C@H]3O)c1 [Compound 25, (S)-7-((5-Cyanopyridin-3-yl)oxy)-2,2-difluoro-3-hydroxy-2,3-dihydro-1H-indene-4-sulfonamide]	17.6	1.1	–	–	–
N#Cc1cc(F)cc(Oc2ccc(S(=O)(=O)C(F)(F)F)c3c2CC(F)C3N)c1 (stereo not shown) [Compound 32, 3-((1-amino-2-fluoro-7-((trifluoromethyl)sulfonyl)-2,3-dihydro-1H-inden-4-yl)oxy)-5-fluorobenzonitrile]	3.51	2.45	–	–	–
C[S+]([O-])c1ccc(Oc2cc(F)cc(C#N)c2)c2c1[C@H](O)C(F)(F)C2 (stereo partly drawn) [Compound 36, 3-[(1S)-2,2-Difluoro-1-hydroxy-7-methylsulfinyl-indan-4-yl]oxy-5-fluoro-benzonitrile]	2	2.28	–	–	–
N#Cc1cc(F)cc(Oc2ccc(S(=O)(=O)C(F)(F)F)c3c2CC(F)(F)[C@H]3NCCO)c1 [Compound 55, 3-[(1S)-2,2-difluoro-1-(2-hydroxyethylamino)-7-(trifluoromethylsulfonyl)indan-4-yl]oxy-5-fluoro-benzonitrile]	4.9	3.1	–	–	–
CS(=O)(=O)c1ccc(Oc2cc(F)cc(C#N)c2)c2c1[C@H](O)C(F)(F)[C@H]2F [Compound 57, 3-fluoro-5-[(1S,3S)-2,2,3-trifluoro-1-hydroxy-7-methylsulfonyl-indan-4-yl]oxy-benzonitrile]	0.72	–	–	–	0.779
CS(=O)(=O)c1ccc(Oc2cc(F)cc(C#N)c2)c2c1[C@H](O)[C@H](F)[C@@H]2O [Compound 60, 3-fluoro-5-[(1S,2R,3R)-2-fluoro-1,3-dihydroxy-7-methylsulfonyl-indan-4-yl]oxy-benzonitrile]	1.34	1.32	–	–	–
C[C@@]1(F)Cc2c(Oc3cc(F)cc(C#N)c3)ccc(S(C)(=O)=O)c2[C@@H]1O [Compound 64, 3-fluoro-5-(((1S,2R)-2-fluoro-1-hydroxy-2-methyl-7-(methylsulfonyl)-2,3-dihydro-1H-inden-4-yl)oxy)benzonitrile]	2.03	2.83	–	–	–
N#Cc1cc(F)cc(Oc2ccc(S(N)(=O)=O)c3c2[C@@H](F)[C@@H](F)[C@H]3O)c1 [Compound 100, (1R,2S,3S)-7-(3-cyano-5-fluoro-phenoxy)-1,2-difluoro-3-hydroxy-indane-4-sulfonamide]	–	0.067	–	–	–
N#Cc1cc(F)cc(Oc2ccc(S(N)(=O)=O)c3c2[C@H](F)C(F)(F)[C@H]3O)c1 [Compound 103, (1S,3S)-7-(3-cyano-5-fluoro-phenoxy)-1,2,2-trifluoro-3-hydroxy-indane-4-sulfonamide]	–	–	–	–	0.253
O=S1(=O)CC(O)c2c1ccc(Oc1cc(F)cc(Cl)c1)c2Br (stereo not shown) [Compound 116, 4-Bromo-5-(3-chloro-5-fluorophenoxy)-3-hydroxy-2,3-dihydrobenzo[b]thiophene 1,1-dioxide]	–	–	–	4.8	–
O=S1(=O)c2ccc(Oc3cc(F)cc(F)c3)c(C(F)F)c2C(O)C1F (stereo not shown) [Compound 133, 4-(difluoromethyl)-5-(3,5-difluorophenoxy)-2-fluoro-3-hydroxy-2,3-dihydrobenzo[b]thiophene 1,1-dioxide]	–	0.124	–	–	–
N#Cc1cc(F)cc(Oc2ccc3c(c2C(F)F)C(O)C(F)(F)S3(=O)=O)c1 (stereo not shown) [Compound 139, 3-((4-(Difluoromethyl)-2,2-difluoro-3-hydroxy-1,1-dioxido-2,3-dihydrobenzo[b]thiophen-5-yl)oxy)-5-fluorobenzonitrile]	–	–	0.004	–	–
[2H]C1(O)c2c(ccc(Oc3cc(F)cc(C#N)c3)c2C(F)F)S(=O)(=O)C1(F)F (stereo not shown) [Compound 150, 3-((4-(Difluoromethyl)-2,2-difluoro-3-hydroxy-1,1-dioxido-2,3-dihydrobenzo[b]thiophen-5-yl-3-d)oxy)-5-fluorobenzonitrile]	–	–	–	0.012	–
[2H][C@@]1(O)c2c(ccc(Oc3cc(F)cc(C#N)c3)c2C(F)F)S(=O)(=O)C1(F)F [Compound 153, (R)-3-((4-(Difluoromethyl)-2,2-difluoro-3-hydroxy-1,1-dioxido-2,3-dihydrobenzo[b]thiophen-5-yl-3-d)oxy)-5-fluorobenzonitrile]	–	–	0.006	–	–

Now from value to compound, other results behind:

IC50 [1] [µM]	EC50 (786-O-Hif-Luc cells; [2]) [µM]	EC50 (786-O-Hif-Luc cells; [3]) [µM]	EC50 (786-O-Hif-Luc cells) [µM]	Structure (SMILES)	EC50 (786-O-Hif-Luc cells; 24 h) [µM]
0.063	0.115	–	–	CS(=O)(=NC#N)c1ccc(Oc2cc(F)cc(C#N)c2)c2c1[C@H](O)[C@H](F)C2 (mixture of isomers) [Compound 66, N-(((2R,3S)-7-(3-cyano-5-fluorophenoxy)-2-fluoro-3-hydroxy-2,3-dihydro-1H-inden-4-yl)(methyl)(oxo)-λ^6-sulfanylidene)cyanamide]	–
0.09	0.897	–	–	N#Cc1cc(F)cc(Oc2ccc(S(=O)(=O)C(F)(F)F)c3c2CC(F)C3N)c1 (single isomer, unassigned) [Compound 29, 3-((1-amino-2-fluoro-7-((trifluoromethyl)sulfonyl)-2,3-dihydro-1H-inden-4-yl)oxy)-5-fluorobenzonitrile]	–
0.076	–	0.255	–	N#Cc1cc(F)cc(Oc2ccc(S(=N)(=O)CF)c3c2CC(F)(F)[C@H]3O)c1 (single isomer, unassigned) [Compound 39]	–
0.058	–	0.153	–	N#CN=S(=O)(CF)c1ccc(Oc2cc(F)cc(C#N)c2)c2c1[C@H](O)[C@H](F)C2 (single isomer, unassigned) [Compound 40]	–
0.071	0.1	–	–	N#CN=S(=O)(CF)c1ccc(Oc2cc(F)cc(C#N)c2)c2c1[C@H](O)C(F)(F)C2 (single isomer, unassigned) [Compound 49]	–
0.239	–	0.286	–	N=S1(=O)c2ccc(Oc3cc(F)cc(F)c3)c(Br)c2C(O)C1(F)F (single isomer, unassigned) [Compound 142, 4-bromo-5-(3,5-difluorophenoxy)-2,2-difluoro-3-hydroxy-1-imino-2,3-dihydro-1H-1λ^4-benzo[b]thiophene 1-oxide]	–
0.177	0.277	–	–	CS(=N)(=O)c1ccc(Oc2cc(F)cc(F)c2)c2c1[C@H](O)C(F)(F)C2 (stereo partly drawn) [Compound 10, ((S)-7-(3,5-Difluorophenoxy)-2,2-difluoro-3-hydroxy-2,3-dihydro-1H-inden-4-yl)(imino)(methyl)-λ^6-sulfanone]	–
< 0.005	13.5	–	–	Cc1cncc(Oc2ccc(S(C)(=O)=O)c3c2CC(F)(F)[C@H]3O)n1 [Compound 11, (S)-2,2-Difluoro-4-((6-methylpyrazin-2-yl)oxy)-7-(methylsulfonyl)-2,3-dihydro-1H-inden-1-ol]	–
0.23	0.512	–	–	O=S(=O)(CF)c1ccc(Oc2cccc3sccc23)c2c1C(O)C(F)(F)C2 (stereo not shown) [Compound 22, 4-(Benzo[b]thiophen-4-yloxy)-2,2-difluoro-7-((fluoromethyl)sulfonyl)-2,3-dihydro-1H-inden-1-ol]	–
0.066	0.173	–	–	O=S(=O)(c1ccc(Oc2cc(Cl)c[n+]([O-])c2)c2c1[C@H](O)C(F)(F)C2)C(F)(F)F [Compound 28, (S)-3-Chloro-5-((2,2-difluoro-1-hydroxy-7-((trifluoromethyl)sulfonyl)-2,3-dihydro-1H-inden-4-yl)oxy)pyridine 1-oxide]	–
0.31	19.4	–	–	CS(=O)(=O)c1ccc(Oc2cc(F)cc(C#N)c2)c2c1C(=O)C(F)(Cl)C2 (stereo not shown) [Compound 33, 3-((2-chloro-2-fluoro-7-(methylsulfonyl)-1-oxo-2,3-dihydro-1H-inden-4-yl)oxy)-5-fluorobenzonitrile]	–
0.097	0.1	–	–	CS(=O)(=O)c1ccc(Oc2cc(F)cc(C#N)c2)c2c1[C@H](O)C(F)(Cl)C2 (stereo partly drawn) [Compound 34, 3-(((1S)-2-chloro-2-fluoro-1-hydroxy-7-(methylsulfonyl)-2,3-dihydro-1H-inden-4-yl)oxy)-5-fluorobenzonitrile]	–
0.23	0.39	–	–	CS(=O)(=O)c1ccc(Oc2cc(F)cc(C#N)c2)c2c1[C@H](O)C[C@@H]2F [Compound 59, 3-fluoro-5-[(1R,3S)-3-fluoro-1-hydroxy-7-methylsulfonyl-indan-4-yl]oxy-benzonitrile]	–
